Data published in PubChem BioAssay (NCI).
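Dose response: 5 concentrations. Exposure: 48 h. Format: 96-well plates. Endpoint: linear interpolation; highest concentration if not reached. The concentration for full growth arrest is given as TGI.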

What was measured:
Test in all cases: NCI tumour cell line growth inhibition, 48 h
NCI-H522 lung = test system: NCI-H522 lung
COLO 205 colon = test system: COLO 205 colon
SF-268 CNS = test system: SF-268 CNS
HOP-62 NSCLC = test system: HOP-62 NSCLC
NCI/ADR-RES ovarian = test system: NCI/ADR-RES ovarian
HL-60(TB) leukemia = test system: HL-60(TB) leukemia
MDA-MB-231 breast = test system: MDA-MB-231 breast
NCI-H226 lung = test system: NCI-H226 lung
LOX IMVI melanoma = test system: LOX IMVI melanoma
OVCAR-8 ovarian = test system: OVCAR-8 ovarian
A549 NSCLC = test system: A549 NSCLC
M14 melanoma = test system: M14 melanoma
OVCAR-3 ovarian = test system: OVCAR-3 ovarian
HCT-15 colon = test system: HCT-15 colon
UACC-62 melanoma = test system: UACC-62 melanoma
NCI-H23 lung = test system: NCI-H23 lung
NCI-H460 lung = test system: NCI-H460 lung
HCT-116 colon = test system: HCT-116 colon
SNB-75 CNS = test system: SNB-75 CNS
RPMI-8226 leukemia = test system: RPMI-8226 leukemia
SK-MEL-2 melanoma = test system: SK-MEL-2 melanoma
IGROV1 ovarian = test system: IGROV1 ovarian
HOP-92 NSCLC = test system: HOP-92 NSCLC
MDA-N = test system: MDA-N
SK-OV-3 ovarian = test system: SK-OV-3 ovarian
OVCAR-4 ovarian = test system: OVCAR-4 ovarian
OVCAR-5 ovarian = test system: OVCAR-5 ovarian
MALME-3M melanoma = test system: MALME-3M melanoma
PC-3 prostate = test system: PC-3 prostate
SW-620 colon = test system: SW-620 colon
ACHN renal = test system: ACHN renal
TK-10 renal = test system: TK-10 renal
BT-549 breast = test system: BT-549 breast
SNB-19 CNS = test system: SNB-19 CNS
HCC-2998 colon = test system: HCC-2998 colon
SF-539 CNS = test system: SF-539 CNS
HS 578T breast = test system: HS 578T breast
HT29 colon = test system: HT29 colon
KM12 colon = test system: KM12 colon
SN12C renal = test system: SN12C renal
UACC-257 melanoma = test system: UACC-257 melanoma
UO-31 renal = test system: UO-31 renal
T-47D breast = test system: T-47D breast
SK-MEL-28 melanoma = test system: SK-MEL-28 melanoma
786-0 renal = test system: 786-0 renal
MDA-MB-435 = test system: MDA-MB-435
A498 renal = test system: A498 renal
DU-145 prostate = test system: DU-145 prostate
U251 CNS = test system: U251 CNS
SK-MEL-5 melanoma = test system: SK-MEL-5 melanoma
K-562 leukemia = test system: K-562 leukemia
CAKI-1 renal = test system: CAKI-1 renal
SR leukemia = test system: SR leukemia
SF-295 CNS = test system: SF-295 CNS
MOLT-4 leukemia = test system: MOLT-4 leukemia
MCF7 breast = test system: MCF7 breast
CCRF-CEM leukemia = test system: CCRF-CEM leukemia
EKVX NSCLC = test system: EKVX NSCLC
RXF 393 renal = test system: RXF 393 renal

With `COC(=O)C(Cc1ccccc1)NP(=O)(O)OCC1OC(n2ccc(N)nc2=O)C(O)C1O` (stereo not given) the TGI (NCI-H522 lung) was > 100 µM, the TGI (COLO 205 colon) was > 100 µM and the TGI (SF-268 CNS) was > 100 µM. The TGI (HOP-62 NSCLC) was > 100 µM, the TGI (NCI/ADR-RES ovarian) was > 100 µM and the TGI (HL-60(TB) leukemia) was > 100 µM. For the same compound, the TGI (MDA-MB-231 breast) was > 100 µM, the TGI (NCI-H226 lung) was > 100 µM and the TGI (LOX IMVI melanoma) was > 100 µM. For the same compound, the TGI (OVCAR-8 ovarian) was > 100 µM, the TGI (A549 NSCLC) was > 100 µM and the TGI (M14 melanoma) was > 100 µM. The TGI (OVCAR-3 ovarian) was > 100 µM, the TGI (HCT-15 colon) was > 100 µM and the TGI (UACC-62 melanoma) was > 100 µM. The TGI (NCI-H23 lung) was > 100 µM, the TGI (NCI-H460 lung) was > 100 µM and the TGI (HCT-116 colon) was > 100 µM. For the same compound, the TGI (SNB-75 CNS) was > 100 µM, the TGI (RPMI-8226 leukemia) was > 100 µM and the TGI (SK-MEL-2 melanoma) was > 100 µM. The TGI (IGROV1 ovarian) was > 100 µM, the TGI (HOP-92 NSCLC) was > 100 µM and the TGI (MDA-N) was > 100 µM. For the same compound, the TGI (SK-OV-3 ovarian) was > 100 µM, the TGI (OVCAR-4 ovarian) was > 100 µM and the TGI (OVCAR-5 ovarian) was > 100 µM. For the same compound, the TGI (MALME-3M melanoma) was > 100 µM, the TGI (PC-3 prostate) was > 100 µM and the TGI (SW-620 colon) was > 100 µM. For the same compound, the TGI (ACHN renal) was > 100 µM, the TGI (TK-10 renal) was > 100 µM and the TGI (BT-549 breast) was > 100 µM. The TGI (SNB-19 CNS) was > 100 µM, the TGI (HCC-2998 colon) was > 100 µM and the TGI (SF-539 CNS) was > 100 µM. For the same compound, the TGI (HS 578T breast) was > 100 µM, the TGI (HT29 colon) was > 100 µM and the TGI (KM12 colon) was > 100 µM. The TGI (SN12C renal) was > 100 µM, the TGI (UACC-257 melanoma) was > 100 µM and the TGI (UO-31 renal) was > 100 µM. The TGI (T-47D breast) was > 100 µM, the TGI (SK-MEL-28 melanoma) was > 100 µM and the TGI (786-0 renal) was > 100 µM. For the same compound, the TGI (MDA-MB-435) was > 100 µM, the TGI (A498 renal) was > 100 µM and the TGI (DU-145 prostate) was > 100 µM. The TGI (U251 CNS) was > 100 µM, the TGI (SK-MEL-5 melanoma) was > 100 µM and the TGI (K-562 leukemia) was > 100 µM. For the same compound, the TGI (CAKI-1 renal) was > 100 µM, the TGI (SR leukemia) was > 100 µM and the TGI (SF-295 CNS) was > 100 µM. For the same compound, the TGI (MOLT-4 leukemia) was > 100 µM, the TGI (MCF7 breast) was > 100 µM and the TGI (CCRF-CEM leukemia) was > 100 µM. The TGI (EKVX NSCLC) was > 100 µM.

`C#CCn1c2c(c3ccccc3c1=O)C(=O)c1ccccc1-2` was tested, and the TGI (NCI-H522 lung) was 42.2 µM, the TGI (COLO 205 colon) was > 100 µM and the TGI (SF-268 CNS) was 34.1 µM. The TGI (HOP-62 NSCLC) was 24.1 µM, the TGI (NCI/ADR-RES ovarian) was 88.7 µM and the TGI (HL-60(TB) leukemia) was 10.2 µM. The TGI (MDA-MB-231 breast) was 39.1 µM, the TGI (NCI-H226 lung) was 79.3 µM and the TGI (LOX IMVI melanoma) was > 100 µM. The TGI (OVCAR-8 ovarian) was 82.3 µM, the TGI (A549 NSCLC) was 57.3 µM and the TGI (M14 melanoma) was > 100 µM. For the same compound, the TGI (OVCAR-3 ovarian) was 29.6 µM, the TGI (HCT-15 colon) was > 100 µM and the TGI (UACC-62 melanoma) was 57.1 µM. The TGI (NCI-H23 lung) was 40.4 µM, the TGI (HCT-116 colon) was > 100 µM and the TGI (SNB-75 CNS) was 27.4 µM. The TGI (RPMI-8226 leukemia) was > 100 µM, the TGI (SK-MEL-2 melanoma) was > 100 µM and the TGI (IGROV1 ovarian) was 80.7 µM. For the same compound, the TGI (HOP-92 NSCLC) was > 100 µM, the TGI (MDA-N) was > 100 µM and the TGI (SK-OV-3 ovarian) was 73.1 µM. For the same compound, the TGI (OVCAR-4 ovarian) was 33.1 µM, the TGI (OVCAR-5 ovarian) was > 100 µM and the TGI (MALME-3M melanoma) was > 100 µM. For the same compound, the TGI (PC-3 prostate) was > 100 µM, the TGI (SW-620 colon) was > 100 µM and the TGI (TK-10 renal) was 61.6 µM. For the same compound, the TGI (BT-549 breast) was > 100 µM, the TGI (SF-539 CNS) was 24.2 µM and the TGI (HS 578T breast) was 34.8 µM. For the same compound, the TGI (HT29 colon) was 65.9 µM, the TGI (KM12 colon) was > 100 µM and the TGI (SN12C renal) was 81.6 µM. The TGI (UACC-257 melanoma) was > 100 µM, the TGI (UO-31 renal) was 13.9 µM and the TGI (T-47D breast) was 69.4 µM. For the same compound, the TGI (SK-MEL-28 melanoma) was > 100 µM, the TGI (786-0 renal) was 32 µM and the TGI (MDA-MB-435) was > 100 µM. It also gave a TGI (A498 renal) of 82.9 µM, a TGI (DU-145 prostate) of 44.4 µM and a TGI (U251 CNS) of 42.5 µM. For the same compound, the TGI (SK-MEL-5 melanoma) was 22.1 µM, the TGI (K-562 leukemia) was > 100 µM and the TGI (CAKI-1 renal) was 24.3 µM. The TGI (SR leukemia) was > 100 µM, the TGI (SF-295 CNS) was 94.3 µM and the TGI (MOLT-4 leukemia) was > 100 µM. The TGI (MCF7 breast) was 27.7 µM, the TGI (CCRF-CEM leukemia) was > 100 µM and the TGI (EKVX NSCLC) was 58.8 µM.

In the case of `CS(=O)(=O)Nc1ccc(NCc2cnc3ccc4[nH]cccc4c23)cc1`, the TGI (NCI-H522 lung) is reported as 42.3 µM, the TGI (COLO 205 colon) is reported as 36.2 µM and the TGI (SF-268 CNS) is reported as 61.8 µM. The TGI (HOP-62 NSCLC) was > 100 µM, the TGI (RXF 393 renal) was 41.9 µM and the TGI (NCI/ADR-RES ovarian) was > 100 µM. The TGI (HL-60(TB) leukemia) was 52.6 µM, the TGI (MDA-MB-231 breast) was 97.4 µM and the TGI (NCI-H226 lung) was > 100 µM. The TGI (LOX IMVI melanoma) was > 100 µM, the TGI (OVCAR-8 ovarian) was > 100 µM and the TGI (A549 NSCLC) was > 100 µM. The TGI (M14 melanoma) was 46.4 µM, the TGI (OVCAR-3 ovarian) was 92.9 µM and the TGI (HCT-15 colon) was > 100 µM. The TGI (UACC-62 melanoma) was 30.7 µM, the TGI (NCI-H23 lung) was 59.6 µM and the TGI (NCI-H460 lung) was > 100 µM. The TGI (HCT-116 colon) was 51.8 µM, the TGI (SNB-75 CNS) was 61.3 µM and the TGI (RPMI-8226 leukemia) was 31 µM. The TGI (SK-MEL-2 melanoma) was 32 µM, the TGI (IGROV1 ovarian) was > 100 µM and the TGI (HOP-92 NSCLC) was > 100 µM. For the same compound, the TGI (MDA-N) was 37.5 µM, the TGI (SK-OV-3 ovarian) was > 100 µM and the TGI (OVCAR-4 ovarian) was 78.4 µM. The TGI (OVCAR-5 ovarian) was > 100 µM, the TGI (MALME-3M melanoma) was 46.6 µM and the TGI (PC-3 prostate) was 48.1 µM. For the same compound, the TGI (SW-620 colon) was > 100 µM, the TGI (ACHN renal) was > 100 µM and the TGI (TK-10 renal) was 94.8 µM. For the same compound, the TGI (BT-549 breast) was 73.2 µM, the TGI (SNB-19 CNS) was > 100 µM and the TGI (SF-539 CNS) was 68.3 µM. The TGI (HS 578T breast) was 57 µM, the TGI (HT29 colon) was > 100 µM and the TGI (KM12 colon) was 36.7 µM. For the same compound, the TGI (SN12C renal) was 88.8 µM, the TGI (UACC-257 melanoma) was 51.9 µM and the TGI (UO-31 renal) was 78.2 µM. For the same compound, the TGI (T-47D breast) was 66.6 µM, the TGI (SK-MEL-28 melanoma) was 66.4 µM and the TGI (786-0 renal) was > 100 µM. It also gave a TGI (MDA-MB-435) of 32.5 µM, a TGI (A498 renal) of 51.8 µM and a TGI (DU-145 prostate) of 71.3 µM. It also gave a TGI (U251 CNS) of 68.9 µM, a TGI (SK-MEL-5 melanoma) of 28.8 µM and a TGI (K-562 leukemia) of 53.7 µM. For the same compound, the TGI (CAKI-1 renal) was 65 µM, the TGI (SR leukemia) was 47.7 µM and the TGI (SF-295 CNS) was > 100 µM. The TGI (MOLT-4 leukemia) was 33.6 µM, the TGI (MCF7 breast) was 94.9 µM and the TGI (CCRF-CEM leukemia) was 58.5 µM. The TGI (EKVX NSCLC) was > 100 µM.
